Experimental data reported in patent publication US9850247B2 (Almac Discovery Limited, priority 2013, dated 2017).

Key:
[1] = target: T1, Wee-1 kinase (Homo sapiens, UniProt P30291); assay: Measurement of Wee-1 kinase activity (ADP-Glo luminescent kit); assay type: biochemical
T1 construct: purchased Invitrogen PV3817
Procedure: Method 1: Measurement of Wee-1 Kinase Activity
In the measurement of Wee-1 activity, a commercial peptide Poly(Lys Tyr (4:1)) hydrobromide was purchased from Sigma Aldrich and used as the substrate. Activated Wee-1 kinase was purchased from Invitrogen (PV3817) and an ADP-Glo luminescent kit was purchased from Promega.
All reactions took place in […] volumes in reaction buffer containing 40 mM Tris-HCl and 20 mM magnesium chloride, supplemented with 0.1 mg/mL bovine serum albumin and 2 mM DTT. Compounds were serially diluted in buffer and 5 μL of each concentration pipetted into a white 384 well plate (Sigma Aldrich M6186). A 5 μL aliquot of the Wee-1 enzyme was added to each well and the plate centrifuged for 1 min to ensure mixing of the enzyme and inhibitor.
The plate was incubated at room temperature for 30 minutes before the addition of 2.0 μg/mL of substrate and 30 μM ATP in a 5 μL aliquot. The plate was centrifuged for one minute and incubated for 1 h at RT.
15 µL of ADP-Glo stop reagent was added to each well to quench the reaction and deplete unconverted ATP. The plate was incubated for a further 40 min in the dark at RT.
30 μL of ADP-Glo kinase detection reagent was added to each well, converting ADP to ATP, catalysing the generation of luciferin by luciferase. The plate was shaken for 1 min, and incubated in the dark for an additional hour.
Luminescence from each well was detected using the Biotek Synergy4 HD plate reader and the percentage inhibition of kinase activity calculated for each inhibitor tested. Positive (kinase only) and negative (no kinase) controls were added to each plate to ensure specific interaction of kinase and inhibitor. The IC50 concentration for each inhibitor was calculated by plotting the percentage kinase inhibition against concentration of inhibitor and the curve generated by non-linear regression fitting.

[2] = CLint estimates using human liver microsomes (Method 4); assay type: in vitro ADME; settings: pH 7.4, 1 μM compound, read-out: Mics - CLint (HLM CLint)
Procedure: Method 4: Determination of CLint Estimates Using Human liver microsomes Test compounds (final concentration=1 μM; final DMSO concentration=0.1%) were incubated in 0.1 M phosphate buffer pH 7.4 with human liver microsomes (0.5 mg of protein/mL) at 37° C. Reactions were started by addition of NADPH in 0.1 M phosphate buffer pH 7.4 (final concentration 1 mM). 40 μL aliquots were removed at 2, 5, 10, 15, 20, 30, 40 and 50 min. Reactions were quenched in 80 μL of ice-cold methanol. Samples were subsequently frozen overnight then centrifuged at 3500 rpm for 20 min at 4° C. The supernatants were removed and transferred into analytical plates and analysed by LC/MS/MS. LC/MS/MS Method: All samples were analysed on a Waters Acquity I-Class coupled to a Waters Xevo TQD mass spectrometer. A Waters BEH C18 2.1×50 mm 1.7 μm column was used and mobile phases were water and methanol containing 0.1% formic acid as modifier. Analysis was by multiple reaction monitoring and conditions were optimised for each test compound. Data Analyses: From a plot of 1n peak area against time, the gradient of the line is determined. Subsequently, half-life and intrinsic clearance are calculated using the following equations. [formula] [formula] [formula] where V=Incubation volume (μL)/number of cells Method 5: Determination of Kinetic Solubility (in PBS Buffer)

T1 sequence (P30291 whole entry): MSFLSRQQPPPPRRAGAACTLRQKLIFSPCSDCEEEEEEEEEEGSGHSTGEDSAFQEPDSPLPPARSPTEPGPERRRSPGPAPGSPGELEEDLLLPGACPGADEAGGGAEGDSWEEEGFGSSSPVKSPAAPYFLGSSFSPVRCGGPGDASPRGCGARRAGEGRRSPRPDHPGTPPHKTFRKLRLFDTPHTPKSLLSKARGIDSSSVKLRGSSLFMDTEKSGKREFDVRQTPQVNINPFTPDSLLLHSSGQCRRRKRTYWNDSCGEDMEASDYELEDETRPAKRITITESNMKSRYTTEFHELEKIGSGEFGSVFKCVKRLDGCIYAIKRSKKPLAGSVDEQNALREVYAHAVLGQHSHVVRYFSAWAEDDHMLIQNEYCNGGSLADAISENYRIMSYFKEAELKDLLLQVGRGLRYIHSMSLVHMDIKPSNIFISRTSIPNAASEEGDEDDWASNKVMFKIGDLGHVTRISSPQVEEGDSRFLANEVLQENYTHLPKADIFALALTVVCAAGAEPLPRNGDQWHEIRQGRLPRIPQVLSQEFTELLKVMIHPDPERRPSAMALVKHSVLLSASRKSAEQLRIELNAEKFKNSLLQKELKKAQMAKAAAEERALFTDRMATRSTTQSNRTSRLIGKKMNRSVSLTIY

IC50 [1] [µM] | microsomal CLint at 1 μM [2] [µL/min/mg] | SMILES
0.01 to 0.1 | ≤ 15 | CN1CN(c2c(Cl)cccc2Cl)C(=O)c2cnc(Nc3ccc(C4CCNCC4)cc3)nc21 [Example 119, 3-(2,6-dichlorophenyl)-1-methyl-7-((4-(piperidin-4-yl)phenyl)amino)-2,3-dihydropyrimido[4,5-d]pyrimidin-4(1H)-one]
0.01 to 0.1 | 15 to 50 | CN1CN(c2c(Cl)cccc2Cl)C(=O)c2cnc(Nc3ccc(N4CCN(CCO)CC4)cc3)nc21 [Example 116, 3-(2,6-dichlorophenyl)-7-((4-(4-(2-hydroxyethyl)piperazin-1-yl)phenyl)amino)-1-methyl-2,3-dihydropyrimido[4,5-d]pyrimidin-4(1H)-one]
0.01 to 0.1 | ≤ 15 | C[C@@H]1CN(c2ccc(Nc3ncc4c(n3)N(C)CN(c3ccccc3Cl)C4=O)cc2)[C@@H](C)CN1 [Example 111, 3-(2-chlorophenyl)-7-((4-((2S,5R)-2,5-dimethylpiperazin-1-yl)phenyl)amino)-1-methyl-2,3-dihydropyrimido[4,5-d]pyrimidin-4(1H)-one]
0.01 to 0.1 | 15 to 50 | CN1CN(c2c(Cl)cccc2Cl)C(=O)c2cnc(Nc3ccc(N4CCOCC4)cc3)nc21 [Example 41, 3-(2,6-dichlorophenyl)-1-methyl-7-((4-morpholinophenyl)amino)-2,3-dihydropyrimido[4,5-d]pyrimidin-4(1H)-one]
≥ 0.1 | 15 to 50 | CN1CN(c2c(Cl)cccc2Cl)C(=O)c2cnc(Nc3ccc(N4CCN(C5CC5)CC4)cc3)nc21 [Example 115, 7-((4-(4-cyclopropylpiperazin-1-yl)phenyl)amino)-3-(2,6-dichlorophenyl)-1-methyl-2,3-dihydropyrimido[4,5-d]pyrimidin-4(1H)-one]
0.01 to 0.1 | ≤ 15 | CN1CN(c2c(Cl)cccc2Cl)C(=O)c2cnc(Nc3ccc(N4C[C@@H]5C[C@H]4CN5C)cc3)nc21 [Example 44, 3-(2,6-dichlorophenyl)-1-methyl-7-((4-((1S,4S)-5-methyl-2,5-diazabicyclo[2.2.1]heptan-2-yl)phenyl)amino)-2,3-dihydropyrimido[4,5-d]pyrimidin-4(1H)-one]
0.01 to 0.1 | ≤ 15 | CNCc1cc(Nc2ncc3c(n2)N(C)CN(c2c(Cl)cccc2Cl)C3=O)ccc1Br [Example 157, 7-((4-bromo-3-((methylamino)methyl)phenyl)amino)-3-(2,6-dichlorophenyl)-1-methyl-2,3-dihydropyrimido[4,5-d]pyrimidin-4(1H)-one]
0.01 to 0.1 | ≤ 15 | Cc1cc(Nc2ncc3c(n2)N(C)CN(c2ccccc2Cl)C3=O)ccc1N1C[C@@H]2C[C@H]1CN2 [Example 109, 7-((4-((1S,4S)-2,5-diazabicyclo[2.2.1]heptan-2-yl)-3-methylphenyl)amino)-3-(2-chlorophenyl)-1-methyl-2,3-dihydropyrimido[4,5-d]pyrimidin-4(1H)-one]
0.01 to 0.1 | 15 to 50 | C[C@@H]1CN(c2ccc(Nc3ncc4c(n3)N(C)CN(c3c(Cl)cccc3Cl)C4=O)cc2)CCN1C [Example 32, (R)-3-(2,6-dichlorophenyl)-7-((4-(3,4-dimethylpiperazin-1-yl)phenyl)amino)-1-methyl-2,3-dihydropyrimido[4,5-d]pyrimidin-4(1H)-one]
0.01 to 0.1 | 15 to 50 | CN1CN(c2c(Cl)cccc2Cl)C(=O)c2cnc(Nc3ccc(N4CCN(C)[C@@H](CO)C4)cc3)nc21 [Example 34, (R)-3-(2,6-dichlorophenyl)-7-((4-(3-(hydroxymethyl)-4-methylpiperazin-1-yl)phenyl)amino)-1-methyl-2,3-dihydropyrimido[4,5-d]pyrimidin-4(1H)-one]
0.01 to 0.1 | 15 to 50 | CNCc1cc(Nc2ncc3c(n2)N(C)CN(c2c(Cl)cccc2Cl)C3=O)ccc1-c1cccnc1 [Example 156, 3-(2,6-dichlorophenyl)-1-methyl-7-((3-((methylamino)methyl)-4-(pyridin-3-yl)phenyl)amino)-2,3-dihydropyrimido[4,5-d]pyrimidin-4(1H)-one]
0.01 to 0.1 | ≤ 15 | CNCc1cc(Nc2ncc3c(n2)N(C)CN(c2c(Cl)cccc2Cl)C3=O)ccc1OC [Example 159, 3-(2,6-dichlorophenyl)-7-((4-methoxy-3-((methylamino)methyl)phenyl)amino)-1-methyl-2,3-dihydropyrimido[4,5-d]pyrimidin-4(1H)-one]
0.01 to 0.1 | 15 to 50 | CN1CCC(Oc2ccc(Nc3ncc4c(n3)N(C)CN(c3c(Cl)cccc3Cl)C4=O)cc2)CC1 [Example 90, 3-(2,6-dichlorophenyl)-1-methyl-7-((4-((1-methylpiperidin-4-yl)oxy)phenyl)amino)-2,3-dihydropyrimido[4,5-d]pyrimidin-4(1H)-one]
0.01 to 0.1 | 15 to 50 | COC[C@@H]1CNCCN1c1ccc(Nc2ncc3c(n2)N(C)CN(c2c(Cl)cccc2Cl)C3=O)cc1 [Example 130, (S)-3-(2,6-dichlorophenyl)-7-((4-(2-(methoxymethyl)piperazin-1-yl)phenyl)amino)-1-methyl-2,3-dihydropyrimido[4,5-d]pyrimidin-4(1H)-one]
0.01 to 0.1 | – | CN1CN(c2c(Cl)cccc2Cl)C(=O)c2cnc(Nc3ccc(N4CC5(CNC5)C4)cc3)nc21 [Example 51, 7-((4-(2,6-diazaspiro[3.3]heptan-2-yl)phenyl)amino)-3-(2,6-dichlorophenyl)-1-methyl-2,3-dihydropyrimido[4,5-d]pyrimidin-4(1H)-one]
0.01 to 0.1 | – | Cc1cccc(Cl)c1N1CN(C)c2nc(Nc3ccc(N4CCNCC4)cc3)ncc2C1=O [Example 92, 3-(2-chloro-6-methylphenyl)-1-methyl-7-((4-(piperazin-1-yl)phenyl)amino)-2,3-dihydropyrimido[4,5-d]pyrimidin-4(1H)-one]
0.01 to 0.1 | – | CC(=O)N1CCN(c2ccc(Nc3ncc4c(n3)N(C)CN(c3c(Cl)cccc3Cl)C4=O)cc2)CC1 [Example 125, 7-((4-(4-acetylpiperazin-1-yl)phenyl)amino)-3-(2,6-dichlorophenyl)-1-methyl-2,3-dihydropyrimido[4,5-d]pyrimidin-4(1H)-one]
0.01 to 0.1 | – | CN1CN(c2c(Cl)cccc2Cl)C(=O)c2cnc(Nc3ccc(N4CCOCC4)c(CO)c3)nc21 [Example 73, 3-(2,6-dichlorophenyl)-7-((3-(hydroxymethyl)-4-morpholinophenyl)amino)-1-methyl-2,3-dihydropyrimido[4,5-d]pyrimidin-4(1H)-one]
0.01 to 0.1 | – | Cc1cccc(Cl)c1N1CN(C)c2nc(Nc3ccc(N4CCN[C@H](C)C4)cc3)ncc2C1=O [Example 100, (R)-3-(2-chloro-6-methylphenyl)-1-methyl-7-((4-(3-methylpiperazin-1-yl)phenyl)amino)-2,3-dihydropyrimido[4,5-d]pyrimidin-4(1H)-one]
0.01 to 0.1 | – | COCc1cc(Nc2ncc3c(n2)N(C)CN(c2c(C)cccc2Cl)C3=O)ccc1N1CCN[C@H](C)C1 [Example 101, (R)-3-(2-chloro-6-methylphenyl)-7-((3-(methoxymethyl)-4-(3-methylpiperazin-1-yl)phenyl)amino)-1-methyl-2,3-dihydropyrimido[4,5-d]pyrimidin-4(1H)-one]
0.01 to 0.1 | – | CN1CN(c2c(Cl)cccc2Cl)C(=O)c2cnc(Nc3ccc(N4CCN(C)[C@H](CO)C4)c(F)c3)nc21 [Example 50, (S)-3-(2,6-dichlorophenyl)-7-((3-fluoro-4-(3-(hydroxymethyl)-4-methylpiperazin-1-yl)phenyl)amino)-1-methyl-2,3-dihydropyrimido[4,5-d]pyrimidin-4(1H)-one]

SMILES | IC50 [1] [µM] | microsomal CLint at 1 μM [2] [µL/min/mg]
CN1CN(c2ccccc2Cl)C(=O)c2cnc(Nc3ccc(N4CC5CCC(C4)N5C)c(CO)c3)nc21 [Example 97, 3-(2-chlorophenyl)-7-((3-(hydroxymethyl)-4-(8-methyl-3,8-diazabicyclo[3.2.1]octan-3-yl)phenyl)amino)-1-methyl-2,3-dihydropyrimido[4,5-d]pyrimidin-4(1H)-one] | 0.01 to 0.1 | ≤ 15
